Laboratory results as given in patent US4537723A, “Derivatives of leukotrienes A and C” (The Upjohn Company, priority 1983, dated 1985).

Test system: SRS-A formation in rat mononuclear cells
Assay: SRS-A formation in rat mononuclear cells incubated with cysteine and challenged with a calcium ionophore
Format: cell-based
Details: 10 μg/ml; for inhibition at 10 µg/mL: Rattus norvegicus, read-out: effectiveness in preventing the synthesis of SRS-A
Description: As an example of the SRS-A inhibitory activity of the compounds of this invention, several of these compounds were evaluated in a standard laboratory test. This test is conducted in rat mononuclear cells incubated in the presence of cysteine and challenged with a calcium ionophore (which induces SRS-A formation). In this test system, two of these compounds, the isomers of 1-carboxy-3-N-octylcyclopropane-2-octanoic acid.

Structure (SMILES)	inhibition at 10 µg/mL	inhibition of the synthesis of SRS-A (rat mononuclear cells, calcium ionophore challenge)
CCCCCCCCC(O)C(CCCCCCCC(=O)O)[Se]c1ccccc1 (stereo not drawn) [9-Phenylselenyl-10-Hydroxyoctadecanoic Acid]	100%	
CCCCCCCCC1C(CCCCCCCC(=O)O)C1C(=O)O (stereo not drawn) [Example 4, 1-Carboxy-3-n-Octylcyclopropane-2-Octanoic Acid]		totally inhibited
CCCCCCCCC([Se]c1ccccc1)C(O)CCCCCCCC(=O)O (stereo not drawn) [9-Hydroxy-10-Phenylselenyloctadecanoic Acid]	100%	
